We go through four compounds from PMC3359661, “FK228 Analogues Induce Fetal Hemoglobin in Human Erythroid Progenitors” (Anemia, 2012).

Experiment [1] has as its system γ-globin transcription in primary erythroid progenitors. In words: RT-qPCR of γ-globin mRNA in primary erythroid progenitors (two-phase liquid culture). Conditions: Day 11 erythroid progenitors treated 48 hr (Figure 3 legend), untreated normalized to one. It is filed as cell-based, human. The protocol:
(§1) The two-phase liquid culture system was established as previously published by Fibach et al. using buffy coat mononuclear cells, purchased from Carter Blood Care (Fort Worth, TX) in accordance with the guidelines of the Institutional Review Board at the University of Texas at Dallas. During phase 1, cells were grown in IMDM medium with 30% fetal bovine serum and 50 ng/mL each of the granulocyte-monocyte colony-stimulating factor, Interleukin-3, and stem cell factor. Subsequently, phase 2 was initiated on day 7 with the addition of erythropoietin (2 U/mL) and stem cell factor (50 ng/mL). The cells were treated on Day 11 with the different test compounds and harvested on Day 14 (72 hr incubation).
Total RNA was isolated from samples using RNA Stat-60 (TEL-TEST “B” Inc., Friendswood, TX) and used for RT-qPCR analysis as previously published. […] The globin mRNA levels were calculated as a ratio of GAPDH (γ/GAPDH, β/GAPDH), and the γ/β-globin mRNA ratio was calculated by dividing γ/GAPDH by β/GAPDH.
Figure 3 JMA33 and JMA26 induce HbF in primary erythroid cells. (a) Day 11 erythroid progenitors were treated for 48 hr with the controls agents and the FK228 analogues shown and then analyzed by RT-qPCR. […] Data were calculated as the means ± SEM. […] The images generated were used to count 500 DAPI positive cells and the %FITC positive cells were calculated accordingly.
Background: In qPCR the cycle at which signal appears reflects the starting amount.

Experiment [2] concerns HbF-positive primary erythroid progenitors. The experiment is described as follows: Anti-HbF FITC immunostaining of primary erythroid progenitors. The format is cell-based, human. Particulars: anti-HbF FITC / DAPI, 500 cells counted; 15.5% HbF-positive at baseline in untreated cells. As for the experimental part: as §1
Primary erythroid progenitor cytospin cell preparations were fixed with 4% paraformaldehyde in phosphate buffered saline for 15 min, washed, and then permeabilized with 0.3% Trition-100 solution for 10 min. Cells were then blocked in a 5% bovine serum albumin solution and immunostaining performed at 4°C overnight with anti-HbF fluorescein isothiocyanate (FITC) conjugated antibody (Bethyl Laboratories Inc., TX). Cell nuclei were stained with mounting medium containing 4′,6-diamidino-2-phenylindole (DAPI; Santa Cruz Biotechnology, CA). Primary cells were photographed with an Olympus BX 51 phase contrast epifluorescent microscope equipped with Hoffman Modulation optics. Phase-contrast images were recorded with a CCD camera (1/100 sec exposure) and fluorescence images were photographed through 485/520 nm emission filter. The percent of HbF positive cells was calculated by dividing the number of FITC positive cells by total cells (DAPI positive).
Figure 3 JMA33 and JMA26 induce HbF in primary erythroid cells. (a) Day 11 erythroid progenitors were treated for 48 hr with the controls agents and the FK228 analogues shown and then analyzed by RT-qPCR. Untreated cells (UT) were used as a control and normalized to one. Data were calculated as the means ± SEM. […] The images generated were used to count 500 DAPI positive cells and the %FITC positive cells were calculated accordingly.

The test system of experiment [3] is γ-globin promoter activity in KU812-γF/βR stable lines. In words: KU812 dual-luciferase reporter stable lines (μLCRβprRluc AγprFluc), γ-globin promoter activity. The format is cell-based, human. Particulars: 48 hr; for Fold change (γ/γ + 2β): untreated normalized to one. The text has this: KU812 stable cell lines were created by co-transfecting wild-type KU812 cells with pEGFP-NI (G418 selectable marker) and theμLCRβ prRluc ^A γ prFluc dual-reporter a kind gifts from Dr. George Stamatoyannopoulos (University of Washington). […] Likewise, 1.4 kb of human Aγ-globin promoter was inserted upstream of firefly luciferase to create ^A γ prFluc. The μLCR (locus control region), Pβ prRluc, and ^A γ prFluc fragments were subsequently cloned into the mammalian vector, pRL-null.
After 72 hr, G418 was added at a concentration of […] for 3 days then maintained under selection pressure indefinitely at a concentration of […]. KU812 stable lines were treated with the various drugs at the same concentrations described above. FK228 and analogues were screened at concentrations between 1–1000 nM for 48 hr and cell toxicity was monitored by 2% Trypan blue exclusion. The effect of drug treatments on γ-globin and β-globin promoter activity was monitored by luciferase assay.
Luciferase activity was monitored under the different experimental conditions using the Dual Luciferase Assay Reporter System (Promega, Madison, WI). The activity of firefly luciferase represents γ-globin promoter activity (γF), while the renilla luciferase is the read-out for β-globin promoter activity (βR). The β-globin promoter was strategically cloned between the LCR and γ-globin promoter to increase β expression, while simultaneously increasing the sensitivity of detection of γ-globin gene inducers.
After drug treatments, KU812 stable cells were washed with 1X phosphate buffered saline and lysed in 1X Passive Lysis Buffer for 15 min, then protein extracts were added to the Luciferase Assay Reagent II and firefly luciferase activity quantified in a Turner Designs TD-20/20 luminometer (Sunnyvale, CA). To measure βR activity, Stop & Glo Reagents was added to measure the renilla luciferase activity. Total protein was determined by Bradford assay on a Beckman DU 640 spectrophotometer (Chaska, MN) and luciferase activity was corrected for total protein.
Subsequently, three independent dual-luciferase reporter KU812 stable cell lines were established to analyze the ability FK228 analogues to induce γ-globin promoter activity without an effect on β-globin transcription. […] Since the firefly luciferase gene (γF) has approximately […] luminescence than the renilla gene (βR), the renilla activity was multiplied by two to adjust for the difference in luminescence yielding the γ/γ+2β final measurement. The FK228 analogues were examined at concentrations ranging from 1–1000 nM in the three stable lines. After 48-hour treatments, cells were harvested and protein isolated for luciferase activity using the Dual Luciferase Reporter Assay.

Experiment [4] relates to HbF levels in primary erythroid cells. The experiment is described as follows: HbF ELISA in primary erythroid cells. It is filed as cell-based, human. Particulars: for Fold change in HbF levels: relative to untreated = 1, concentrations as in E7; for Fetal hemoglobin quantification, Mean (HbF/total Hb/total protein): treated Day 11, harvested Day 14, conc: Cys 10 mM, Hemin 50 μM, SAHA 2000 nM, FK228 1.5 nM, JMA1 1.5 nM, JMA2 1.0 nM, JMA26 500 nM, JMA33 1000 nM, untreated 0.683. As for the experimental part:
as §1
Total hemoglobin was quantified using 20 μL of protein extract from one million KU812 cells mixed with 5 mL of Drabkin's reagent (Sigma); then cyanmethemoglobin was measured at the 540 nm wavelength. HbF levels were quantified using the human Hemoglobin F ELISA Quantitation Kit (Bethyl Laboratory, Montgomery, TX). Briefly, 96-well plates were coated with sheep anti-human HbF antibody (1 mg/mL). After blocking with 1% bovine serum albumin, horse radish peroxidase-conjugated secondary antibody (1 mg/mL) was added. Raw data were analyzed using GraphPad PRISM (GraphPad Software, Inc., La Jolla, CA) and HbF levels were calculated as a ratio of total hemoglobin corrected for total protein (HbF/total Hb/total protein).
(An ELISA detects its analyte on a solid surface through an enzyme-linked reagent.)

In experiment [5] the test system is HDAC activity in HeLa cells. In words: HDAC Fluorescent Activity Assay (Fluor de Lys) in HeLa cells. It is filed as cell-based, human. Particulars: TSA 0.5 to 1000 nM; HeLa cells, Fluor de Lys substrate, fluorescence 440 nm. As for the experimental part:
The HDAC Fluorescent Activity Assay (Enzo Life Science, Farmingdale, NY) was used to measure HDAC inhibition in HeLa cells in a 96-well format using Trichostatin A as the positive control per the manufacturer's protocol. This assay is based on the Fluor de Lys (Fluorogenic Histone Deacetylase Lysyl (FDL)) Substrate/Developer. The procedure was as follows: the test compounds FK228, JMA26, and JMA33 were added to HeLa cells along with the FDL substrate to allow intracellular drug activation then fluorescence levels were read on the fluorometer at 440 nm (CytoFluor II, PerSeptive Biosystems, Farmingdale, NY). The drug concentrations tested were based on the amount required for HbF induction in primary cells. Data was reported as the mean ± standard deviation (SD) for at least five replicates.
To ascertain the mechanism of HbF induction by the lead compounds, we performed an in vivo assay to investigate the ability of JMA26 and JMA33 to act as HDAC inhibitors. The HDAC Fluorescent Activity Assay designed to measure HDAC activity in HeLa cells was completed in a 96-well format. The assay is based on the fact that the Fluor de Lys substrate is deacetylated by HDACs to generate a fluorescent readout. TSA (0.5 to 1000 nM) was used to establish the assay in HeLa cells, showing about 80% HDAC inhibition in our system (Figure 4(a)).
Figure 4 HDAC inhibition assay. The HDAC Fluorescent Activity Assay was used to measure HDAC inhibition in HeLa cells (See Section 2). Compounds and FDL substrate were added to HeLa cells to allow drug activation in vivo then fluorescence levels were quantified on the fluorometer at 440 nm. (a) Trichostatin A (TSA) was used as the control. (b) Inhibition studies were conducted for FK228 showing maximal HDAC inhibition at the 300 nM concentration. (c) Similar studies were performed for JMA33 and JMA26. The data are reported as the means ± SEM.

In a further experiment the test system is sickle-cell patients. Particulars: sickle cell patients treated with hydroxyurea; cited from earlier work. The source says:
Several classes of pharmacological compounds that reactivate γ-globin gene transcription have been identified. They include cytotoxic agents, DNA methyl transferase, and histone deacetylase (HDAC) inhibitors. Cytotoxic compounds terminate actively cycling progenitors and perturb cellular growth to trigger rapid erythroid regeneration and γ-globin gene activation. S-stage cytotoxic drugs, such as cytosine arabinoside, myleran, vinblastine, and hydroxyurea, induce HbF production in primates and humans. The Multicenter Study of Hydroxyurea established ...

[6] abbreviates: Line 1, firefly (γ) / renilla (β) luciferase corrected for total protein, mean, conc: Cys 10 mM, Hemin 50 μM, SAHA 2000 nM, FK228 1.5 nM, 1127Ox 1000 nM, JMA1 1.5 nM, JMA2 1.0 nM, JMA12 1000 nM, JMA26 500 nM, JMA33 1000 nM, JMA112 100 nM, untreated 0.0402.
Where [7] appears, read: Line 1, concentrations as in E1.
Where [8] appears, read: Line 2, concentrations as in E1, untreated 0.1573.
Where [9] appears, read: Line 2, concentrations as in E1.
[10] abbreviates: Line 3, concentrations as in E1, untreated 0.0721.
[11] abbreviates: Line 3, concentrations as in E1.

With `O=C(CCCCCCC(=O)Nc1ccccc1)NO` [SAHA, suberoylanilide hydroxamic acid], the “induction of γ-globin transcription at the mRNA level” value in experiment [1] was at most 3.2 fold. In addition, the “increase in HbF-positive cells” value in experiment [2] is 3.2 fold. In addition, the “γ/γ + 2β Mean” value in experiment [3] (setting [6]) is 0.2157; in experiment [3] (setting [8]), 0.6500; in experiment [3] (setting [10]), 0.2520. Besides, the “Fold change (γ/γ + 2β)” value in experiment [3] (setting [7]) amounted to 5.400; in experiment [3] (setting [9]), 4.140; in experiment [3] (setting [11]) it was 3.500. Further, in experiment [4], the “Fold change in HbF levels” value stood at 1.602 fold. Besides, the “Fetal hemoglobin quantification, Mean (HbF/total Hb/total protein)” value in experiment [4] was 1.094.

With `CC(/C=C/C(=O)NO)=C\[C@@H](C)C(=O)c1ccc(N(C)C)cc1` [TSA, Trichostatin A], in experiment [5], the HDAC inhibition entry is given as “about 80%”.

As to `NC(=O)NO` [hydroxyurea], the non-response rate with sickle-cell patients is 30%.

hemin: in experiment [2], the “increase in HbF-positive cells” value turned out to be 3.0 fold. Also, the “γ/γ + 2β Mean” value is reported as 0.1732 in experiment [3] (setting [6]), 0.6593 in experiment [3] (setting [8]) and 0.2508 in experiment [3] (setting [10]). Also, the “Fold change (γ/γ + 2β)” value turned out to be 4.325 in experiment [3] (setting [7]), 4.261 in experiment [3] (setting [9]) and 3.486 in experiment [3] (setting [11]). For the same compound, the “Fold change in HbF levels” value in experiment [4] worked out at 2.218 fold. Also, the “Fetal hemoglobin quantification, Mean (HbF/total Hb/total protein)” value in experiment [4] is recorded as 1.515.
